Measured values: US10550105B2 (Ribon Therapeutics Inc., priority 2018, dated 2020)

target: PARP7 (Homo sapiens (Human), UniProt Q7Z3E1); assay: Enzymatic assay for inhibition of PARP7: TR-FRET displacement of biotinylated Probe A from the TIPARP active site; assay type: binding; conditions: Table A-1
Method: 20 nL of a dose response curve of each test compound was spotted in black 384-well polystyrene proxiplates (Perkin Elmer) using a Mosquito (TTP Labtech). […] Reactions were incubated at 25° C. for an additional 30 min, then read on an Envision platereader equipped with a LANCE/DELFIA top mirror (Perkin Elmer) using excitation of 320 nm and emission of 615 nm and […] with a 90 μs delay. The ratio of the 665/615 nm emission were calculated for each well to determine the amount of complex of TIPARP and Probe A in each well. […] The Hill Coefficient is normally allowed to float but may also be fixed at 1 in a 3-parameter fit. Y is the % inhibition and x is the compound concentration.

PARP7, sequence (Q7Z3E1 whole entry): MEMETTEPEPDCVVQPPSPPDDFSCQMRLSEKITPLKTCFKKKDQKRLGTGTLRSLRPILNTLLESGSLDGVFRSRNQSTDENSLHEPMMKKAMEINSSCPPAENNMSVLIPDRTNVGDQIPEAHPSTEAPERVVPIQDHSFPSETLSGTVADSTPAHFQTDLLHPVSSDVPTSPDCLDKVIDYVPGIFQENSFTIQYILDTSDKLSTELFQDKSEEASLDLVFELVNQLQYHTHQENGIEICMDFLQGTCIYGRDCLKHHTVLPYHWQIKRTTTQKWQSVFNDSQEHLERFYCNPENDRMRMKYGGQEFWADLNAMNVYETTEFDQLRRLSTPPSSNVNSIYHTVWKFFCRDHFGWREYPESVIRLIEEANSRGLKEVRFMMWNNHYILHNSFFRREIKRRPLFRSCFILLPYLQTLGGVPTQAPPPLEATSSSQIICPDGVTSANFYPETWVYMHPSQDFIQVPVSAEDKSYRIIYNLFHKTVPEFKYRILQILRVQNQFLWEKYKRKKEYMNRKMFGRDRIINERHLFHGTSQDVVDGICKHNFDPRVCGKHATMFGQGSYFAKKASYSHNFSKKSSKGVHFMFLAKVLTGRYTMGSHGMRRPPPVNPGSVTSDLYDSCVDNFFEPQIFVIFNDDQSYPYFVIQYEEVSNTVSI

**Q.** `N#Cc1ccc(N2CCN(C(=O)CCCOC[C@@H]3c4ccccc4CN3c3cn[nH]c(=O)c3C(F)(F)F)CC2)nc1` [Example 410, (S)-6-(4-(4-((2-(6-Oxo-5-(trifluoromethyl)-1,6-dihydropyridazin-4-yl)isoindolin-1-yl)methoxy)butanoyl)piperazin-1-yl)nicotinonitrile] was tested. Which IC50 did it give?
**A.** < 0.1 µM

**Q.** For `O=C(CCOC[C@@H](CC1CCNCC1)Nc1cn[nH]c(=O)c1C(F)(F)F)N1CCN(c2ncc(C(F)(F)F)cn2)CC1` [Example 649, (R)-5-((1-(3-Oxo-3-(4-(5-(trifluoromethyl)pyrimidin-2-yl)piperazin-1-yl)propoxy)-3-(piperidin-4-yl)propan-2-yl)amino)-4-(trifluoromethyl)pyridazin-3(2H)-one], which IC50 is on record?
**A.** < 0.1 µM

**Q.** Which IC50 does the source give for `O=C(CCOC[C@H](Cc1cccnc1)Nc1cn[nH]c(=O)c1C(F)(F)F)N1CCN(c2ncc(C(F)(F)F)cn2)CC1` [Example 637, (S)-5-((1-(3-Oxo-3-(4-(5-(trifluoromethyl)pyrimidin-2-yl)piperazin-1-yl)propoxy)-3-(pyridin-3-yl)propan-2-yl)amino)-4-(trifluoromethyl)pyridazin-3(2H)-one] here?
**A.** < 0.1 µM

**Q.** With `N#Cc1ccc(N2CCN(C(=O)c3nccc(OCC4c5ccccc5CN4c4cn[nH]c(=O)c4C(F)(F)F)n3)CC2)nc1` (stereo not shown) [Example 46, 6-(4-[[4-([2-[6-oxo-5-(trifluoromethyl)-1,6-dihydropyridazin-4-yl]-2,3-dihydro-1H-isoindol-1-yl]methoxy)pyrimidin-2-yl]carbonyl]piperazin-1-yl)pyridine-3-carbonitrile] as the compound, how does the IC50 read?
**A.** < 0.1 µM

**Q.** Which IC50 does the source give for `N#Cc1ccc(N2CCN(C(=O)C[C@@H](N)COC[C@@H]3CCCN3c3cn[nH]c(=O)c3C(F)(F)F)CC2)nc1` [Example 145A, 6-[4-[(3R)-3-amino-4-[[(2S)-1-[6-oxo-5-(trifluoromethyl)-1,6-dihydropyridazin-4-yl]pyrrolidin-2-yl]methoxy]butanoyl]piperazin-1-yl]pyridine-3-carbonitrile; formic acid] here?
**A.** < 0.1 µM

**Q.** With `O=c1[nH]ncc(N2C[C@H]3CCCN[C@H]3C2)c1C(F)(F)F` [Example 497, 5-((4aR,7aR)-Octahydro-6H-pyrrolo[3,4-b]pyridin-6-yl)-4-(trifluoromethyl)pyridazin-3(2H)-one] as the compound, how does the IC50 read?
**A.** ≥ 1 µM

**Q.** Which IC50 does the source give for `CN(C)CCOc1cccc2c1CN(c1cn[nH]c(=O)c1Cl)C2` [Example 166, 4-Chloro-5-(4-(2-(dimethylamino)ethoxy)isoindolin-2-yl)pyridazin-3(2H)-one] here?
**A.** ≥ 1 µM

**Q.** Which IC50 does the source give for `C[C@@H]1C[C@@H](COc2cccc(C(=O)N3CCN(c4ccc(C#N)cn4)CC3)c2)N(c2cn[nH]c(=O)c2C(F)(F)F)C1` [Example 75, 6-[4-[(3-[[(2S,4R)-4-methyl-1-[6-oxo-5-(trifluoromethyl)-1,6-dihydropyridazin-4-yl]pyrrolidin-2-yl]methoxy]phenyl)carbonyl]piperazin-1-yl]pyridine-3-carbonitrile] here?
**A.** < 0.1 µM

**Q.** How did the IC50 turn out when `N#Cc1ccc(N2CCN(C(=O)c3cc(OC[C@@H]4CCCN4c4cn[nH]c(=O)c4C(F)(F)F)ccc3F)CC2)nc1` [Example 67, 6-[4-[(2-fluoro-5-[[(2S)-1-[6-oxo-5-(trifluoromethyl)-1,6-dihydropyridazin-4-yl]pyrrolidin-2-yl]methoxy]phenyl)carbonyl]piperazin-1-yl]pyridine-3-carbonitrile] was run?
**A.** < 0.1 µM

**Q.** `O=c1[nH]ncc(N2Cc3cc(F)c(OC4CCNC4)cc3C2)c1C(F)(F)F` (stereo not shown) [Example 53, 5-(5-fluoro-6-(pyrrolidin-3-yloxy)isoindolin-2-yl)-4-(trifluoromethyl)pyridazin-3(2H)-one] was tested. Which IC50 did it give?
**A.** < 0.1 µM

**Q.** Which IC50 does the source give for `O=C(c1cccc(OC[C@@H]2CCCN2c2cn[nH]c(=O)c2C(F)(F)F)c1)N1CCN(c2ncc(C(F)(F)F)cn2)CC1` [Example 441, (S)-4-(Trifluoromethyl)-5-(2-((3-(4-(5-(trifluoromethyl)pyrimidin-2-yl)piperazine-1-carbonyl)phenoxy)methyl)pyrrolidin-1-yl)pyridazin-3(2H)-one] here?
**A.** < 0.1 µM

**Q.** Which IC50 does the source give for `NC1CCCN(c2cccc3c2CN(c2cn[nH]c(=O)c2C(F)(F)F)C3)C1` (stereo not shown) [Example 301, 5-(4-(3-Aminopiperidin-1-yl)isoindolin-2-yl)-4-(trifluoromethyl)pyridazin-3(2H)-one] here?
**A.** 0.1 to 1 µM

**Q.** Which IC50 does the source give for `O=c1[nH]ncc(N2Cc3cccc(OCC4CCCCO4)c3C2)c1C(F)(F)F` (stereo not shown) [Example 216, 5-(4-((Tetrahydro-2H-pyran-2-yl)methoxy)isoindolin-2-yl)-4-(trifluoromethyl)pyridazin-3(2H)-one] here?
**A.** < 0.1 µM

**Q.** For `N#Cc1ccc(N2CCN(C(=O)NCCOC[C@@H]3CCCN3c3cn[nH]c(=O)c3C(F)(F)F)CC2)nc1` [Example 126, 4-(5-cyanopyridin-2-yl)-N-(2-[[(2S)-1-[6-oxo-5-(trifluoromethyl)-1,6-dihydropyridazin-4-yl]pyrrolidin-2-yl]methoxy]ethyl)piperazine-1-carboxamide], which IC50 is on record?
**A.** < 0.1 µM

**Q.** How did the IC50 turn out when `COC[C@@H](COCCC(=O)N1CCN(c2ncc(C(F)(F)F)cn2)CC1)Nc1cn[nH]c(=O)c1Cl` [Example 651, (S)-4-Chloro-5-((1-methoxy-3-(3-oxo-3-(4-(5-(trifluoromethyl)pyrimidin-2-yl)piperazin-1-yl)propoxy)propan-2-yl)amino)pyridazin-3(2H)-one] was run?
**A.** < 0.1 µM

**Q.** For `CN(CCC(=O)N1CCN(c2ccc(C#N)cn2)CC1)C[C@H]1c2ccccc2CN1c1cn[nH]c(=O)c1Cl` [Example 430, (R)-6-(4-(3-(((2-(5-Chloro-6-oxo-1,6-dihydropyridazin-4-yl)isoindolin-1-yl)methyl)(methyl)amino)propanoyl)piperazin-1-yl)nicotinonitrile], which IC50 is on record?
**A.** 0.1 to 1 µM

**Q.** For `N#Cc1ccc(NCCC(=O)Nc2cccc(OC[C@@H]3CCCN3c3cn[nH]c(=O)c3C(F)(F)F)c2)nc1` [Example 85, 3-[(5-cyanopyridin-2-yl)amino]-N-(3-[[(2S)-1-[6-oxo-5-(trifluoromethyl)-1,6-dihydropyridazin-4-yl]pyrrolidin-2-yl]methoxy]phenyl)propanamide], which IC50 is on record?
**A.** < 0.1 µM

**Q.** For `CN1CCC(Oc2cc3c(cc2F)CN(c2cn[nH]c(=O)c2C(F)(F)F)C3)C1` (stereo not shown) [Example 55, 5-[5-fluoro-6-[(1-methylpyrrolidin-3-yl)oxy]-2,3-dihydro-1H-isoindol-2-yl]-4-(trifluoromethyl)-2,3-dihydropyridazin-3-one], which IC50 is on record?
**A.** < 0.1 µM

**Q.** For `O=c1[nH]ncc(N2Cc3ccc(O[C@H]4CCCNC4)cc3C2)c1C(F)(F)F` [Example 289, (S)-5-(5-(Piperidin-3-yloxy)isoindolin-2-yl)-4-(trifluoromethyl)pyridazin-3(2H)-one], which IC50 is on record?
**A.** < 0.1 µM

**Q.** `N#Cc1ccc(N2CCN(C(=O)CNCC[C@H]3c4ccccc4CN3c3cn[nH]c(=O)c3C(F)(F)F)CC2)nc1` [Example 144B, 6-[4-[2-([2-[(1S)-2-[6-oxo-5-(trifluoromethyl)-1,6-dihydropyridazin-4-yl]-2,3-dihydro-1H-isoindol-1-yl]ethyl]amino)acetyl]piperazin-1-yl]pyridine-3-carbonitrile] was tested. Which IC50 did it give?
**A.** 0.1 to 1 µM

**Q.** How did the IC50 turn out when `C[C@@H]1CCN(c2cn[nH]c(=O)c2C(F)(F)F)[C@@H]1COc1cccc(C(=O)N2CCN(c3ccc(C#N)cn3)CC2)c1` [Example 460, 6-(4-(3-(((2S,3R)-3-methyl-1-(6-oxo-5-(trifluoromethyl)-1,6-dihydropyridazin-4-yl)pyrrolidin-2-yl)methoxy)benzoyl)piperazin-1-yl)nicotinonitrile] was run?
**A.** < 0.1 µM

**Q.** Which IC50 does the source give for `C[C@@H]1c2ccccc2CN1c1cn[nH]c(=O)c1C(F)(F)F` [Example 251, (R)-5-(1-Methylisoindolin-2-yl)-4-(trifluoromethyl)pyridazin-3(2H)-one] here?
**A.** ≥ 1 µM

**Q.** `N#Cc1cnc(N2CCN(C(=O)c3cc(OC[C@@H]4c5ccccc5CN4c4cn[nH]c(=O)c4C(F)(F)F)ccn3)CC2)nc1` (single isomer, unassigned) [Example 64 Isomer B] was tested. Which IC50 did it give?
**A.** < 0.1 µM

**Q.** For `O=c1[nH]ncc(N2Cc3cccc(Oc4ccncn4)c3C2)c1C(F)(F)F` [Example 195, 5-(4-(Pyrimidin-4-yloxy)isoindolin-2-yl)-4-(trifluoromethyl)pyridazin-3(2H)-one], which IC50 is on record?
**A.** < 0.1 µM

**Q.** For `O=C(CCOC[C@@H]1CCCN1c1cn[nH]c(=O)c1C(F)(F)F)NC1CCC(Nc2ccccn2)CC1` (single isomer, unassigned; isomer a) [Example 81 Isomer A], which IC50 is on record?
**A.** 0.1 to 1 µM

**Q.** With `N#Cc1ccc(N2CCN(C(=O)COCCNc3cn[nH]c(=O)c3C(F)(F)F)CC2)nc1` [Example 499, 6-[4-[2-(2-[[6-Oxo-5-(trifluoromethyl)-1,6-dihydropyridazin-4-yl]amino]ethoxy)acetyl]piperazin-1-yl]pyridine-3-carbonitrile] as the compound, how does the IC50 read?
**A.** < 0.1 µM

**Q.** With `C[C@H](COc1cn[nH]c(=O)c1C(F)(F)F)OCCC(=O)N1CCN(c2ncc(C(F)(F)F)cn2)CC1` (single isomer, unassigned) [Example 544 Isomer D] as the compound, how does the IC50 read?
**A.** 0.1 to 1 µM

**Q.** How did the IC50 turn out when `C[C@H](COc1cn[nH]c(=O)c1C(F)(F)F)OCCC(=O)N1CCN(c2ccc(C#N)cn2)CC1` [Example 530D, 6-[4-(3-[[(2R)-1-[[6-Oxo-5-(trifluoromethyl)-1,6-dihydropyridazin-4-yl]oxy]propan-2-yl]oxy]propanoyl)piperazin-1-yl]pyridine-3-carbonitrile] was run?
**A.** < 0.1 µM

**Q.** `Cc1c(N2Cc3ccc(OCCO)cc3C2)cn[nH]c1=O` [Example 188, 5-(5-(2-Hydroxyethoxy)isoindolin-2-yl)-4-methylpyridazin-3(2H)-one] was tested. Which IC50 did it give?
**A.** 0.1 to 1 µM

**Q.** Which IC50 does the source give for `C[C@@H](COCCCC(=O)N1CCN(c2ncc(C(F)(F)F)cn2)CC1)Nc1cn[nH]c(=O)c1C(F)(F)F` [Example 634, (S)-5-((1-(4-Oxo-4-(4-(5-(trifluoromethyl)pyrimidin-2-yl)piperazin-1-yl)butoxy)propan-2-yl)amino)-4-(trifluoromethyl)pyridazin-3(2H)-one] here?
**A.** < 0.1 µM

**Q.** `N#Cc1ccc(N2CCN(C(=O)[C@H]3CNC[C@H](OC[C@@H]4CCCN4c4cn[nH]c(=O)c4C(F)(F)F)C3)CC2)nc1` (single isomer, unassigned) [Example 56 Isomer B] was tested. Which IC50 did it give?
**A.** 0.1 to 1 µM
